# Test results as given in US6162830A, “Benzenesulfonamide inhibitors of PDE-IV and their therapeutic use” (Warner-Lambert Company, priority 2000, dated 2000).
# Test system: PDE-IV
# Experiment: PDE-IV Assay Procedure (SPA, 3H-cAMP, U937 lysate)
# Assay type: biochemical
# Details: U937 cell lysate as PDE-IV source; 200 nM cAMP, 8 nM 3H-cAMP; pH 8.0; 2% DMSO; 1 hour at 37° C.; initially tested at 10, 3, 1, 0.3, 0.1 μM
# Protocol: Representative compounds to be tested were diluted in 96-well plates. The compounds were either received as a 10 mM stock solution in DMSO, or as a solid which was resuspended to a concentration of 10 mM in DMSO. The compounds were initially tested at 10, 3, 1, 0.3, and 0.1 μM to calculate an IC50. In some cases, plates containing diluted compounds were frozen before being assayed. In these cases, the plates were thawed for 15 minutes at 37° C. and agitated before proceeding.
# Two microliters of the diluted compounds on Rolipram were spotted into an assay plate. Ninety-eight microliters of reaction mixture containing PDE-IV enzyme were added to each well. The plate was then agitated for 2 minutes at a setting of 3.5 on a vortex and incubated for 1 hour at 37° C. The reaction was terminated with 50 μl of 0.5X SPA beads, and the reaction tray was allowed to incubate at room temperature for 20 minutes before radioactivity was measured using standard instrumentation.
# The reaction mixture contained 35.2 mM Tris pH 8.0, 9.4 mM MgCl2, 4 mM β-mercapotoethanol, 200 nM cAMP, 8 nM ^3 H-cAMP, 2% DMSO 1% U937 lysate (from ABS). The reaction mixture was prepared by adding […] H2 O to 10 mL 10X Assay Buffer, 40 μL 1 μCi/μL ^3 H-cAMP, 20 μL 1 mM cAMP (cAMP stock made fresh each time), and 1 mL U937 cell lysate. 10X assay buffer was prepared by mixing 400 mM Tris Base with 400 mM Tris HCl to pH 8.0, adding to 100 mL of this Tris buffer solution, 1.017 g MgCl2, 319 μL μ-mercaptoethanol. 0.5X SPA beads was prepared by adding 500 mg beads to 56 mL H2 O for a final concentration of 8.9 mg/mL beads and 9 mM zinc sulfate.
row,Structure (SMILES),IC50 [µM]
1,"CCCN(CCC)S(=O)(=O)c1ccc(OC)c(OC)c1 [Example 4, N,N-Dipropyl-3,4-dimethoxybenzenesulfonamide]",0.46
2,"C=CCN(CC=C)S(=O)(=O)c1ccc(OC)c(OC)c1 [Example 5, N,N-Di-(2-propenyl)-3,4-dimethoxybenzenesulfonamide]",0.45
3,"CCOc1ccc(S(=O)(=O)N(C)C)cc1OCC [Example 6, N,N-Dimethyl-3,4-diethoxybenzenesulfonamide]",0.28
4,"COc1ccc(S(=O)(=O)N2CCCCC2)cc1OC [Example 7, N-(3,4-dimethoxybenzenesulfonyl)piperidine]",3.6
5,"COc1ccc(S(=O)(=O)N2CCCC2)cc1OC [Example 8, N-(3,4-dimethoxybenzenesulfonyl)pyrrolidine]",3.2
6,"COc1ccc(S(=O)(=O)NC2CCCCC2)cc1OC [Example 9, N-(3,4-dimethoxybenzenesulfonyl)cyclohexylamine]",2.2
7,"C#CCN(C)S(=O)(=O)c1ccc(OCC)c(OCC)c1 [Example 10, N-(2-Propynyl)-N-methyl-3,4-diethoxybenzenesulfonamide]",0.17
8,"CCN(C)S(=O)(=O)c1ccc(OC)c(OC)c1 [Example 11, N-Ethyl-N-methyl-3,4-dimethoxybenzenesulfonamide]",0.7
9,"CCCN(C)S(=O)(=O)c1ccc(OC)c(OC)c1 [Example 12, N-Propyl-N-methyl-3,4-dimethoxybenzenesulfonamide]",0.47
10,"C=CCN(C)S(=O)(=O)c1ccc(OC)c(OC)c1 [Example 15, N-(2-Propenyl)-N-methyl-3,4-dimethoxybenzenesulfonamide]",0.66
11,"CC=CCN(C)S(=O)(=O)c1ccc(OC)c(OC)c1 [Example 16, N-(2-Butenyl)-N-methyl-3,4-dimethoxybenzenesulfonamide]",1.56
12,"C=CCN(C)S(=O)(=O)c1ccc(OCC)c(OCC)c1 [Example 17, N-(2-Propenyl)-N-methyl-3,4-diethoxybenzenesulfonamide]",0.02
13,"COc1ccc(S(=O)(=O)N(C)CC#N)cc1OC [Example 23, N-(methylenenitrile)-N-methyl-3,4-dimethoxybenzenesulfonamide]",1.76
